Measurements reported in patent US4824955A, “Selenium oxy chloride-pyridine or bipyridine complexes” (Nippon Kayaku Kabushiki Kaisha, priority 1985, dated 1989).
Where “and” joins values, the source holds several entries; their conditions need not be identical. Identical values can stand only once. Like-named read-outs stand apart in the source and are kept apart here.

Columns and labels:
in vivo = settings: mouse, ip, LD50, intraperitoneal, once a day, 7 days, mice
Enrlich carcinoma = assay: Antineoplastic activity against Enrlich carcinoma (life prolongation rate); type: in vivo, 5-week-old ICR mice (male); design: response vs control in vivo: dose or concentration left out as unconfirmed; settings: for response vs control in vivo at 2 mg/kg / response vs control in vivo at 4 mg/kg / response vs control in vivo at 8 mg/kg / response vs control in vivo at 16 mg/kg / response vs control in vivo / response vs control in vivo at 1 mg/kg: Mus musculus, ip, 1440 h, read-out: Life prolongation rate (T/C %); for response vs control in vivo at 1 mg/kg: 1.0 mg/kg/day
Procedure: Approximately 10^6 cells/0.2 ml of Enrlich carcinoma were inoculated into the abdominal cavity of each of the 5-week-old ICR mice (male) used for the test, and the test compounds were administered intraperitoneally to the mice of the treated group once a day for a period of 7 days, starting from the day after said inoculation. The mice of the control group was administered with a saline solution in the same way. Observation of the animals of both groups was continued for 60 days after the administration, and the life prolongation rate (T/C%, T/C×100) was determined from the average duration (days) of life of the mice of the treated group (T) and that of the mice of the control group (C).

[1] = 2.0 mg/kg/day, intraperitoneal, once a day, 7 days
[2] = 8.0 mg/kg/day, intraperitoneal, once a day, 7 days
[3] = […], intraperitoneal, (Note 1) administered for 4 days
[4] = intraperitoneal, once a day, 7 days
[5] = […], intraperitoneal, once a day, 7 days
[6] = […], intraperitoneal, (Note 2) administered for 2 days

| Compound | LD50 (in vivo) [mg/kg] | response vs control in vivo at 2 mg/kg (Enrlich carcinoma; [1]) [%] | response vs control in vivo at 8 mg/kg (Enrlich carcinoma; [2]) [%] | response vs control in vivo (Enrlich carcinoma; [4]) [%] | also measured |
| --- | --- | --- | --- | --- | --- |
| c1ccncc1 [Compound 1-1, Selenium oxybromide-pyridine (1:2) complex] | 8 to 16 | – | – | – | Life prolongation rate (T/C %) (Enrlich carcinoma; mouse, in vivo): 165% and 173% and 181% and 130% |
| Cc1ccccn1 [Compound 1-2, Selenium oxychloride-2-picoline (1:2) complex] | 8 to 16 | – | – | – | response vs control in vivo at 2 mg/kg (Enrlich carcinoma): 176%; response vs control in vivo at 4 mg/kg (Enrlich carcinoma): 169%; response vs control in vivo at 8 mg/kg (Enrlich carcinoma): 194%; response vs control in vivo at 16 mg/kg (Enrlich carcinoma): 75% |
| CCc1ccncc1 [Compound 1-6, Selenium oxychloride-4-ethylpyridine (1:2) complex] | 8 to 16 | 173 | 244 | 209 | response vs control in vivo at 16 mg/kg (Enrlich carcinoma; [3]): 103% |
| CC(C)c1ccncc1 [Compound 1-7, Selenium oxychloride-4-isopropylpyridine (1:2) complex] | 8 to 16 | – | 256 | 222 | response vs control in vivo at 16 mg/kg (Enrlich carcinoma; [3]): 201% |
| c1ccc(-c2cccnc2)cc1 [Compound 1-10, Selenium oxychloride-3-phenylpyridine (1:2) complex] | > 16 | 251 | 203 | 192 | response vs control in vivo at 16 mg/kg (Enrlich carcinoma; [5]): 199% |
| c1ccc(-c2ccncc2)cc1 [Compound 1-11, Selenium oxychloride-4-phenylpyridine (1:2) complex] | > 16 | 166 | 230 | – | response vs control in vivo at 16 mg/kg (Enrlich carcinoma; [5]): 221% |
| Fc1cccnc1 [Compound 1-12, Selenium oxychloride-3-fluoropyridine (1:2) complex] | 8 to 16 | 194 | 201 | 219 | response vs control in vivo at 16 mg/kg (Enrlich carcinoma; [6]): 140% |
| Clc1cccnc1 [Compound 1-13, Selenium oxychloride-3-chloropyridine (1:2) complex] | 8 to 16 | – | – | – | response vs control in vivo at 2 mg/kg (Enrlich carcinoma): 142%; response vs control in vivo at 4 mg/kg (Enrlich carcinoma): 172%; response vs control in vivo at 8 mg/kg (Enrlich carcinoma): 158%; response vs control in vivo at 16 mg/kg (Enrlich carcinoma): 84% |
| Brc1cccnc1 [Compound 1-14, Selenium oxychloride-3-bromopyridine (1:2) complex] | 8 to 16 | 163 | 202 | 179 | response vs control in vivo at 16 mg/kg (Enrlich carcinoma; [3]): 147% |
| Clc1cncc(Cl)c1 [Compound 1-15, Selenium oxychloride-3,5-dichlorpyridine (1:2) complex] | 8 to 16 | 154 | 191 | 174 | response vs control in vivo at 16 mg/kg (Enrlich carcinoma; [3]): 162% |
| Cn1cncc1Br [Compound 1-28, Selenium oxychloride-1-methyl-5-bromoimidazole (1:2) complex] | > 16 | – | 215 | 217 | response vs control in vivo at 16 mg/kg (Enrlich carcinoma; [3]): 264% |
| Cn1c(=O)c2c(ncn2Cc2ccccc2)n(C)c1=O [Compound 1-33, Selenium oxychloride-N--benzyltheophylline (1:2) complex] | > 16 | 138 | 214 | – | response vs control in vivo at 16 mg/kg (Enrlich carcinoma; [5]): 205% |
| Cn1cnc2c1c(=O)n(Cc1ccccc1)c(=O)n2C [Compound 1-34, Selenium oxychloride-N--benzyltheobromine (1:2) complex] | > 16 | 122 | 187 | 159 | response vs control in vivo at 16 mg/kg (Enrlich carcinoma; [5]): 190% |
| O=P(c1ccccc1)(c1ccccc1)c1ccccc1 [Compound 1-36, Selenium oxycloride-triphenylphosphine oxide (1:2) complex] | > 16 | 155 | – | 186 | response vs control in vivo at 16 mg/kg (Enrlich carcinoma; [5]): 197% |
| N#Cc1cccnc1 [Compound 2-7, Tetrachloroselenium-3-cyanopyridine (1:2) complex] | 8 to 16 | – | – | – | response vs control in vivo at 2 mg/kg (Enrlich carcinoma; 2.0 mg/kg/day, intraperitoneal, 7 days, solvent used: DMSO): 201%; response vs control in vivo at 8 mg/kg (Enrlich carcinoma; 8.0 mg/kg/day, intraperitoneal, 7 days, solvent used: DMSO): 214%; response vs control in vivo at 16 mg/kg (Enrlich carcinoma; […], intraperitoneal, 7 days, solvent used: DMSO): 67%; response vs control in vivo (Enrlich carcinoma; intraperitoneal, 7 days, solvent used: DMSO): 243% |
| CC(Cl)C(C)O[Se](=O)OC(C)C(C)Cl (stereo not drawn) [Compound 3-1, Di-(2-chloro-1-methylpropyl)-selenite] | 8 to 16 | 177 | 193 | 179 | response vs control in vivo at 16 mg/kg (Enrlich carcinoma; [5]): 90% |
| CC(C)(Cl)CO[Se](=O)OCC(C)(C)Cl [Compound 3-2, Di-(2-chloro-2-methylpropyl)-selenite] | 8 to 16 | 178 | 207 | 232 | response vs control in vivo at 16 mg/kg (Enrlich carcinoma; [6]): 63% |
| CCC(Cl)CO[Se](=O)OCC(Cl)CC (stereo not drawn) [Compound 3-3, Di-(2-chlorobutyl)selenite] | > 8 | 205 | 212 | 230 | response vs control in vivo at 1 mg/kg (Enrlich carcinoma; [4]): 172% |
| CCCCCCC(Cl)CO[Se](=O)OCC(Cl)CCCCCC (stereo not drawn) [Compound 3-4, Di-(2-chlorooctyl)selenite] | 8 to 16 | 156 | 180 | 208 | response vs control in vivo at 16 mg/kg (Enrlich carcinoma; [3]): 53% |
| O=[Se](OCC(Cl)c1ccccc1)OCC(Cl)c1ccccc1 (stereo not drawn) [Compound 3-5] | > 16 | 154 | 223 | 194 | response vs control in vivo at 16 mg/kg (Enrlich carcinoma; […], intraperitoneal, (Note 5) administered for 6 days): 167% |
| O=[Se](OC1CCCCC1Cl)OC1CCCCC1Cl (stereo not drawn) [Compound 3-6, Di-(2-chlorcyclohexyl)selenite] | 8 to 16 | 210 | 253 | 216 | response vs control in vivo at 16 mg/kg (Enrlich carcinoma; […], intraperitoneal, (Note 3) administered for 3 days): 95% |
| O=[Se](OC1C2CCC(C2)C1Cl)OC1C2CCC(C2)C1Cl (stereo not drawn) [Compound 3-7, Di-(3-chloronorbonyl-2-il)selenite] | 8 to 16 | 143 | 201 | 148 | response vs control in vivo at 16 mg/kg (Enrlich carcinoma; [3]): 119% |
| CCC1CO[Se](=O)O1 (stereo not drawn) [Compound 3-8, 1,2-butanediolselenite] | > 8 | 250 | 212 | 194 | response vs control in vivo at 1 mg/kg (Enrlich carcinoma; [4]): 208% |
| CCC1(CC)CO[Se](=O)OC1 [Compound 3-9, 2,2-diethyl-1,3-propanediolselenite] | > 16 | 152 | 223 | 204 | response vs control in vivo at 16 mg/kg (Enrlich carcinoma; [5]): 194% |
| CN(C)c1ccncc1 [Compound 3-12, Selenium oxychloride-4-dimethylaminopyridine (1:2) complex] | > 16 | – | – | – | response vs control in vivo at 2 mg/kg (Enrlich carcinoma): 169%; response vs control in vivo at 4 mg/kg (Enrlich carcinoma): 183%; response vs control in vivo at 8 mg/kg (Enrlich carcinoma): 232%; response vs control in vivo at 16 mg/kg (Enrlich carcinoma): 190% |
